Assay results: ChEMBL document CHEMBL3044925, “Synthesis of piperazino and morpholino derivatives of aryloxypropane with potential analgesic and possible antimigraine activities” (Med Chem Res, 2011)

Legend:
Mus musculus [1] = experiment: Neurotoxicity against Mus musculus MFI (mouse) assessed as effect on respiration at 90 mg/kg, ip; type: toxicity, organism-based; set-up: dose 90 mg/kg, route intraperitoneal; conditions: in vivo
Mus musculus [2] = experiment: Neurotoxicity against Mus musculus MFI (mouse) assessed as tail erection at 50 mg/kg, ip; type: toxicity, organism-based; set-up: dose 50 mg/kg, route intraperitoneal; conditions: in vivo
Mus musculus [3] = experiment: Neurotoxicity against Mus musculus MFI (mouse) assessed as effect on respiration at 135 mg/kg, ip; type: toxicity, organism-based; set-up: dose 135 mg/kg, route intraperitoneal; conditions: in vivo
Mus musculus [4] = experiment: Neurotoxicity against Mus musculus MFI (mouse) assessed as hair erection at 50 mg/kg, ip; type: toxicity, organism-based; set-up: dose 50 mg/kg, route intraperitoneal; conditions: in vivo
Mus musculus [5] = experiment: Neurotoxicity against Mus musculus MFI (mouse) assessed as skeletal muscle incoordination at 135 mg/kg, ip; type: toxicity, organism-based, Muscle tissue; set-up: dose 135 mg/kg, route intraperitoneal; conditions: in vivo
Mus musculus [6] = experiment: Neurotoxicity in ip dosed Mus musculus MFI (mouse); type: toxicity, organism-based; conditions: in vivo
Mus musculus [7] = experiment: Neurotoxicity against Mus musculus MFI (mouse) assessed as hair erection at 135 mg/kg, ip; type: toxicity, organism-based; set-up: dose 135 mg/kg, route intraperitoneal; conditions: in vivo
Mus musculus [8] = experiment: Neurotoxicity against Mus musculus MFI (mouse) assessed as epilepsy at 50 mg/kg, ip; type: toxicity, organism-based; set-up: dose 50 mg/kg, route intraperitoneal; conditions: in vivo
Mus musculus [9] = experiment: Neurotoxicity against Mus musculus MFI (mouse) assessed as hair erection at 90 mg/kg, ip; type: toxicity, organism-based; set-up: dose 90 mg/kg, route intraperitoneal; conditions: in vivo
Mus musculus [10] = experiment: Neurotoxicity against Mus musculus MFI (mouse) assessed as muscle twitching at 50 mg/kg, ip; type: toxicity, organism-based, Muscle tissue; set-up: dose 50 mg/kg, route intraperitoneal; conditions: in vivo
Mus musculus [11] = experiment: […] activity in Mus musculus MFI (mouse) assessed as inhibition of PBQ-induced writhing at 90 mg/kg, ip administered 1.5 hr prior to PBQ-challenge measured after 10 min relative to aspirin; type: functional; conditions: route intraperitoneal
Mus musculus [12] = experiment: Neurotoxicity against Mus musculus MFI (mouse) assessed as muscle twitching at 90 mg/kg, ip; type: toxicity, organism-based, Muscle tissue; set-up: dose 90 mg/kg, route intraperitoneal; conditions: in vivo
Mus musculus [13] = experiment: Neurotoxicity against Mus musculus MFI (mouse) assessed as excitation at 50 mg/kg, ip; type: toxicity, organism-based; set-up: dose 50 mg/kg, route intraperitoneal; conditions: in vivo
Mus musculus [14] = experiment: Neurotoxicity against Mus musculus MFI (mouse) assessed as skeletal muscle incoordination at 50 mg/kg, ip; type: toxicity, organism-based, Muscle tissue; set-up: dose 50 mg/kg, route intraperitoneal; conditions: in vivo
Mus musculus [15] = experiment: Neurotoxicity against Mus musculus MFI (mouse) assessed as tail erection at 135 mg/kg, ip; type: toxicity, organism-based; set-up: dose 135 mg/kg, route intraperitoneal; conditions: in vivo
Mus musculus [16] = experiment: Neurotoxicity against Mus musculus MFI (mouse) assessed as tail erection at 90 mg/kg, ip; type: toxicity, organism-based; set-up: dose 90 mg/kg, route intraperitoneal; conditions: in vivo
Mus musculus [17] = experiment: Neurotoxicity against Mus musculus MFI (mouse) assessed as epilepsy at 135 mg/kg, ip; type: toxicity, organism-based; set-up: dose 135 mg/kg, route intraperitoneal; conditions: in vivo
Mus musculus [18] = experiment: Neurotoxicity against Mus musculus MFI (mouse) assessed as irritability at 50 mg/kg, ip; type: toxicity, organism-based; set-up: dose 50 mg/kg, route intraperitoneal; conditions: in vivo
Mus musculus [19] = experiment: Neurotoxicity against Mus musculus MFI (mouse) assessed as tremors at 90 mg/kg, ip; type: toxicity, organism-based; set-up: dose 90 mg/kg, route intraperitoneal; conditions: in vivo
Mus musculus [20] = experiment: Neurotoxicity against Mus musculus MFI (mouse) assessed as irritability at 90 mg/kg, ip; type: toxicity, organism-based; set-up: dose 90 mg/kg, route intraperitoneal; conditions: in vivo
Mus musculus [21] = experiment: Neurotoxicity against Mus musculus MFI (mouse) assessed as eye protrusion at 50 mg/kg, ip; type: toxicity, organism-based; set-up: dose 50 mg/kg, route intraperitoneal; conditions: in vivo
Mus musculus [22] = experiment: Neurotoxicity against Mus musculus MFI (mouse) assessed as irritability at 135 mg/kg, ip; type: toxicity, organism-based; set-up: dose 135 mg/kg, route intraperitoneal; conditions: in vivo
Mus musculus [23] = experiment: Neurotoxicity against Mus musculus MFI (mouse) assessed as muscle twitching at 135 mg/kg, ip; type: toxicity, organism-based, Muscle tissue; set-up: dose 135 mg/kg, route intraperitoneal; conditions: in vivo
Mus musculus [24] = experiment: Neurotoxicity against Mus musculus MFI (mouse) assessed as excitation at 135 mg/kg, ip; type: toxicity, organism-based; set-up: dose 135 mg/kg, route intraperitoneal; conditions: in vivo
Mus musculus [25] = experiment: Neurotoxicity against Mus musculus MFI (mouse) assessed as tremors at 50 mg/kg, ip; type: toxicity, organism-based; set-up: dose 50 mg/kg, route intraperitoneal; conditions: in vivo
Mus musculus [26] = experiment: […] activity in Mus musculus MFI (mouse) assessed as inhibition of PBQ-induced writhing at 50 mg/kg, ip administered 1.5 hr prior to PBQ-challenge measured after 10 min relative to aspirin; type: functional; conditions: route intraperitoneal
Mus musculus [27] = experiment: Neurotoxicity against Mus musculus MFI (mouse) assessed as eye protrusion at 90 mg/kg, ip; type: toxicity, organism-based; set-up: dose 90 mg/kg, route intraperitoneal; conditions: in vivo
Mus musculus [28] = experiment: Neurotoxicity against Mus musculus MFI (mouse) assessed as excitation at 90 mg/kg, ip; type: toxicity, organism-based; set-up: dose 90 mg/kg, route intraperitoneal; conditions: in vivo
Mus musculus [29] = experiment: Neurotoxicity against Mus musculus MFI (mouse) assessed as epilepsy at 90 mg/kg, ip; type: toxicity, organism-based; set-up: dose 90 mg/kg, route intraperitoneal; conditions: in vivo
Mus musculus [30] = experiment: Neurotoxicity against Mus musculus MFI (mouse) assessed as skeletal muscle incoordination at 90 mg/kg, ip; type: toxicity, organism-based, Muscle tissue; set-up: dose 90 mg/kg, route intraperitoneal; conditions: in vivo
Mus musculus [31] = experiment: Neurotoxicity against Mus musculus MFI (mouse) assessed as effect on respiration at 50 mg/kg, ip; type: toxicity, organism-based; set-up: dose 50 mg/kg, route intraperitoneal; conditions: in vivo
Mus musculus [32] = experiment: […] activity in Mus musculus MFI (mouse) assessed as inhibition of PBQ-induced writhing at 135 mg/kg, ip administered 1.5 hr prior to PBQ-challenge measured after 10 min relative to aspirin; type: functional; conditions: route intraperitoneal
Mus musculus [33] = experiment: […] activity in ip dosed Mus musculus MFI (mouse) assessed as inhibition of PBQ-induced writhing administered 1.5 hr prior to PBQ-challenge measured after 10 min; type: functional; conditions: read-out: MED
Mus musculus [34] = experiment: Neurotoxicity against Mus musculus MFI (mouse) assessed as tremors at 135 mg/kg, ip; type: toxicity, organism-based; set-up: dose 135 mg/kg, route intraperitoneal; conditions: in vivo
Mus musculus [35] = experiment: Neurotoxicity against Mus musculus MFI (mouse) assessed as eye protrusion at 135 mg/kg, ip; type: toxicity, organism-based; set-up: dose 135 mg/kg, route intraperitoneal; conditions: in vivo

For `CC(COc1cc(Cl)ccc1Cl)N1CCN(C)CC1.O=C(O)C(=O)O` (racemic), the Activity (Mus musculus [1]) was “Toxic”, the Activity (Mus musculus [2]) was “Toxic” and the Activity (Mus musculus [3]) was “Toxic”. The Activity (Mus musculus [4]) was “Toxic”, the Activity (Mus musculus [5]) was “Toxic” and the MTC (Mus musculus [6]) was 90 mg/kg. For the same molecule, the Activity (Mus musculus [7]) was “Toxic”, the Activity (Mus musculus [8]) was “Toxic” and the Activity (Mus musculus [9]) was “Toxic”. The Activity (Mus musculus [10]) was “Toxic”, the inhibition in vivo at 90 mg/kg (Mus musculus [11]) was 62.5% and the Activity (Mus musculus [12]) was “Toxic”. For the same molecule, the Activity (Mus musculus [13]) was “Toxic”, the Activity (Mus musculus [14]) was “Toxic” and the Activity (Mus musculus [15]) was “Toxic”. The Activity (Mus musculus [16]) was “Toxic”, the Activity (Mus musculus [17]) was “Toxic” and the Activity (Mus musculus [18]) was “Toxic”. The Activity (Mus musculus [19]) was “Toxic”, the Activity (Mus musculus [20]) was “Toxic” and the Activity (Mus musculus [21]) was “Toxic”. For the same molecule, the Activity (Mus musculus [22]) was “Toxic”, the Activity (Mus musculus [23]) was “Toxic” and the Activity (Mus musculus [24]) was “Toxic”. The Activity (Mus musculus [25]) was “Toxic”, the inhibition in vivo at 50 mg/kg (Mus musculus [26]) was 50% and the Activity (Mus musculus [27]) was “Toxic”. The Activity (Mus musculus [28]) was “Toxic”, the Activity (Mus musculus [29]) was “Toxic” and the Activity (Mus musculus [30]) was “Toxic”. For the same molecule, the Activity (Mus musculus [31]) was “Toxic”, the inhibition in vivo at 135 mg/kg (Mus musculus [32]) was 100% and the minimal effective dose (Mus musculus [33]) was 60 mg/kg. The Activity (Mus musculus [34]) was “Toxic” and the Activity (Mus musculus [35]) was “Toxic”.
